{"source": "patent US20200385777A1", "about": "“METHOD FOR DETERMINING DYSBIOSIS IN THE INTESTINAL MICROBIOME” (EVOLVE BIOSYSTEMS, INC., priority 2018, published 2020)", "tested_on": "Clostridium difficile", "test": "Equine trial: Clostridium difficile diarrhea outcome in foals", "format": "in vivo, horse", "settings": "all foals dosed at birth with 6.6 mg/kg", "method": "Seventeen foals were born during the initiation of the outbreak, of which fifteen animals became ill and required intervention, applying the standard of care (i.e., antibiotic treatment) and two died. […] All treated animals were given doses immediately at birth and twice per day thereafter for 4 days. […] Two foals, who were dosed starting at 12 hours of life rather than immediately at birth, developed a mild infection by Clostridium difficile but recovered within 8 hr compared to the standard recovery time of >24 hr for sick animals given the standard of care. […] A Fisher's exact test of the two populations (Standard of Care and Probiotic treated) yields a significant difference in incidences of C. difficile infection (p=0.0036) (Table 10)."}
{"smiles": "CO/N=C(\\C(=O)N[C@@H]1C(=O)N2C(C(=O)O)=C(CSC(=O)c3ccco3)CS[C@H]12)c1csc(N)n1", "note": "[ceftiofur]", "values": [{"measurement": "Effect on health outcome related to diarrhea", "value": "did not affect health outcome"}]}
